In article PMC6148290, “Endogenous metabolites of vitamin E limit inflammation by targeting 5-lipoxygenase” (Nature Communications, 2018):

Tests used:
12-LO = target: T1, 12-LO (Homo sapiens, UniProt P18054); experiment: 12-LO product formation in A23187/AA-activated PMNL; format: cell-based; settings: at 3 µM; mean ± s.e.m., n = 3; n.i. no inhibition
T1 construct: 12-HETE (12-LO product from platelets in PMNL preparations); endogenous in cells; host or cells: platelets contaminating human PMNL preparations
T1 sequence (P18054 1-663): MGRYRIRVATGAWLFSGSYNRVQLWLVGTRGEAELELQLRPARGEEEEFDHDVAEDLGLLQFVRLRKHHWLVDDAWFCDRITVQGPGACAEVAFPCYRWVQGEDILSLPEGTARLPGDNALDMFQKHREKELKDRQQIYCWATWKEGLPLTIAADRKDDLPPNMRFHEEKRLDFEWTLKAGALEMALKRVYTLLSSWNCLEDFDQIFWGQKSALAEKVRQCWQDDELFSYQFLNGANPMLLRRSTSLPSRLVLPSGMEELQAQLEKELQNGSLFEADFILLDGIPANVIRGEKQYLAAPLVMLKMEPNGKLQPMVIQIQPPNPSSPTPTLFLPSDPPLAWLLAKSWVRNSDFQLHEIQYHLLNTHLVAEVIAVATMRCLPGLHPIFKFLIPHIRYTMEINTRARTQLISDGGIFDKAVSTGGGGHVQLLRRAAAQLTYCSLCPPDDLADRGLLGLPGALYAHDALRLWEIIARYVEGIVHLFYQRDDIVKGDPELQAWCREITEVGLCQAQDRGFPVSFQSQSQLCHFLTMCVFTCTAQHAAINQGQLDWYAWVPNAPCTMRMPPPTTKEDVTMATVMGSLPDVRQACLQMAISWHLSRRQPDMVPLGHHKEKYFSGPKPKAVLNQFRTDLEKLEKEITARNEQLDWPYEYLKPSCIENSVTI
Description: (§1) Cells were washed and medium was exchanged. Freshly isolated PMNL (1 × 10^7) and stably transfected HEK-293 (1 × 10^6) cells were suspended in PBS pH 7.4 containing 1 mg/ml glucose and 1 mM CaCl2. […] A23187- and A23187/AA-treated PMNL and A23187/AA-treated HEK-293 (5-LO_wt), HEK-293 (5-LO_3W) and HEK-293 (5-LO_Arg101Asp) cells produced 135 ± 21, 636 ± 112, 300 ± 59, 133 ± 29, 55 ± 9 ng 5-LO products, respectively. PMNL synthesized 29 ± 6 ng 12-HETE and 97 ± 23 ng 15-HETE when challenged with A23187/AA. 5-LO products from monocytes were analyzed by UPLC-MS/MS.

15-LO = 15-LO product formation in A23187/AA-activated PMNL; format: cell-based, human; settings: at 3 µM; mean ± s.e.m., n = 3; n.i. no inhibition
Description: as §1

[1] = tested on: peripheral blood mononuclear cells; experiment: Cell viability of PBMC (MTT assay); format: cell-based, human; settings: 24 h
Description: The formazan product was solubilized with SDS (10% in 20 mM HCl), and absorbance was measured at 570 nm using a Multiskan Spectrum microplate reader (Thermo Fisher Scientific).

5-LO [2] = target: T2, 5-LO (Homo sapiens, UniProt P09917); experiment: Activity of purified human recombinant 5-LO (cell-free); format: biochemical; parameters: made in house; host or cells: E. coli Bl21 (DE3)
T2 sequence (P09917 1-674): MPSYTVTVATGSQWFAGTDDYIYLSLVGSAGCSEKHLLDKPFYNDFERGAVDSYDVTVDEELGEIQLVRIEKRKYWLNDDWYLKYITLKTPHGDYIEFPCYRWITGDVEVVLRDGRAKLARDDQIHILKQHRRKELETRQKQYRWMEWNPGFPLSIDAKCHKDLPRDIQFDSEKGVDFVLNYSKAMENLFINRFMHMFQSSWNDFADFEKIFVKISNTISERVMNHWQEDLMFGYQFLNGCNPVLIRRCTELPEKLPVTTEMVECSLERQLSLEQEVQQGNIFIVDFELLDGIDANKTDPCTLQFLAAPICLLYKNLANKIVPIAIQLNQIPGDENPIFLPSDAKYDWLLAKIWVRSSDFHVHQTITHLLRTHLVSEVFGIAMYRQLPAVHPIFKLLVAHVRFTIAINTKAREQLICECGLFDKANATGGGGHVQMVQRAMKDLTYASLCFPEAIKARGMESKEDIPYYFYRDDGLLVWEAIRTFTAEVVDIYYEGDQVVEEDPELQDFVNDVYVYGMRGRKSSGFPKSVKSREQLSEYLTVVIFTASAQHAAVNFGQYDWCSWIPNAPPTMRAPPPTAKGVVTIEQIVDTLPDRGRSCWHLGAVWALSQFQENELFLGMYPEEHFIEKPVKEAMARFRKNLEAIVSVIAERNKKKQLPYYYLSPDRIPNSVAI
Description: E. coli Bl21 (DE3) cells were transformed with pT3–5LO plasmid to express human recombinant 5-LO, which was purified by affinity chromatography on an ATP-agarose column. In brief, E. coli was lysed in 50 mM triethanolamine/HCl pH 8.0 plus EDTA (5 mM), soybean trypsin inhibitor (60 µg/ml), phenylmethanesulphonyl fluoride (1 mM), dithiothreitol (1 mM), and lysozyme (1 mg/ml). After sonication (3 × 15 s), the homogenate was centrifuged at 10,000 × g for 15 min and the supernatant again at 40,000 × g for 70 min at 4 °C. The supernatant was applied to an ATP-agarose column (Sigma-Aldrich), and the column was washed with (i) PBS pH 7.4, 1 mM EDTA, (ii) 50 mM phosphate buffer pH 7.4, 0.5 M NaCl, 1 mM EDTA, and (iii) 50 mM phosphate buffer pH 7.4, 1 mM EDTA. 5-LO was eluted with 50 mM phosphate buffer pH 7.4, 1 mM EDTA, 20 mM ATP.
Purified 5-LO (0.5 µg) in PBS pH 7.4 containing EDTA (1 mM) and ATP (1 mM) was pre-incubated with LCMs for 10 min at 4 °C, pre-warmed for 30 s at 37 °C and 5-LO product formation was started by addition of AA (Sigma-Aldrich; 20 µM if not indicated otherwise) plus CaCl2 (2 mM). […] AA was added after incubation for 5 min on ice.

5-LO [3] = target: T2, 5-LO; experiment: 5-LO product formation in activated PMNL; format: cell-based; parameters: Freshly isolated PMNL (1 × 10^7); endogenous in cells; host or cells: human PMNL freshly isolated from leukocyte concentrates; settings: cell-based; mean ± s.e.m., n = 3; read-out: IC50, activated PMNL (5-LO)
From the text: Human PMNL, monocytes, PBMC, and platelets were freshly isolated from leukocyte concentrates. The protocols for experiments with human blood and blood cells were approved by the ethical commission of the Friedrich-Schiller-University Jena. […] PMNL were recovered from the pellet after hypotonic lysis of erythrocytes. Platelets were obtained from the supernatant and washed with PBS pH 5.9/0.9% NaCl (1:1). […]

[4] = at 1 and 10 µM (one entry for both), n.i. no inhibition
[5] = cell-free, mean ± s.e.m., n = 3, read-out: IC50, human recombinant 5-LO
[6] = human recombinant 5-LO, read-out: IC50 for 5-LO inhibition

Row | SMILES | 12-LO product formation/PMNL, residual activity (12-LO) | 15-LO product formation/PMNL, residual activity (15-LO) | IC50 (5-LO [2]; [5]) [nM] | IC50 (5-LO [3]) [nM] | other results
1 | Cc1c(C)c2c(c(C)c1O)CC[C@@](C)(CCCC(C)CCCC(C)CCCC(C)CO)O2 (some centres unmarked) [2a] | 84.7 ± 4.7 % of control | 156.7 ± 26.2 % of control | 350 ± 40 | 190 ± 50 | Cell viability/peripheral blood mononuclear cells, residual viability [1, 4]: n.i.
2 | C/C(=C\CC/C(C)=C/CC[C@]1(C)CCc2c(C)c(O)cc(C)c2O1)CC/C=C(\C)C(=O)O [4f] | 70.0 ± 14.1 % of control | 186.1 ± 35.8 % of control | – | – | Cell viability/peripheral blood mononuclear cells, residual viability [1, 4]: n.i.
3 | C/C(=C/CC/C(C)=C/CC/C(C)=C/CC[C@]1(C)CCc2cc(O)c(C)c(C)c2O1)CO [3g] | – | 168.8 ± 1.2 % of control | 120 ± 30 | 140 ± 20 | Cell viability/peripheral blood mononuclear cells, residual viability ([1]; at 1 µM): n.i.; Cell viability/peripheral blood mononuclear cells, residual viability ([1]; at 10 µM): 43.7 ± 16.2 % of control
4 | CC(C)=CCC/C(C)=C/CC/C(C)=C/CC[C@]1(C)CCc2cc(O)c(C)c(C)c2O1 [1g] | 70.8 ± 2.3 % of control | n.i. | 200 ± 60 | 132000 ± 33000 | –
5 | CC(C)=CCC/C(C)=C/CC/C(C)=C/CC[C@]1(C)CCc2c(C)c(O)c(C)c(C)c2O1 [1e] | 88.9 ± 4.9 % of control | n.i. | 330 ± 80 | 277000 ± 90000 | –
6 | C/C(=C\CC/C(C)=C/CC[C@]1(C)CCc2cc(O)cc(C)c2O1)CCC=C(CO)CO [compound 8] | – | – | – | – | IC50 (5-LO [2]): 150 ± 40 nM
7 | C/C(=C\CC/C(C)=C/CC/C(C)=C/CC[C@]1(C)CCc2c(C)c(O)c(C)c(C)c2O1)CO [2e] | 62.7 ± 15.2 % of control | 88.0 ± 17.0 % of control | 110 ± 10 | 270 ± 100 | –
8 | Cc1c(C)c2c(c(C)c1O)CCC(C)(CCC(=O)O)O2 (centres unmarked) [6a, 2,5,7,8-tetramethyl-2-(2′-carboxyethyl)-6-hydroxychroman] | 87.2 ± 3.6 % of control | n.i. | – | – | –
9 | C/C(=C\CC[C@]1(C)CCc2cc(O)cc(C)c2O1)CC/C=C(\C)CCCC(C)C(=O)O (some centres unmarked) [4l] | – | – | – | – | IC50 (5-LO [2]): 170 ± 40 nM
10 | C/C(=C\CC/C(C)=C/CC[C@]1(C)CCc2cc(Oc3c(O)cc(C)c4c3CC[C@@](C)(CC/C=C(\C)CC/C=C(\C)CCC=C(CO)CO)O4)c(C)c(C)c2O1)CCC=C(CO)CO [compound 10, (δ,γ)-bi-O-amplexichromanol] | – | – | – | – | IC50 (5-LO [2]; purified human recombinant 5-LO, mean ± s.e.m., n = 3, read-out: IC50 (5-LO)): 400 ± 110 nM
11 | C/C(=C\CC/C(C)=C/CC[C@]1(C)CCc2c(C)c(O)c(C)c(C)c2O1)CC/C=C(\C)C(=O)O [4e] | 72.6 ± 13.6 % of control | 181.5 ± 26.5 % of control | – | – | Cell viability/peripheral blood mononuclear cells, residual viability [1, 4]: n.i.
12 | C/C(=C\CC/C(C)=C/CC/C(C)=C/CC[C@]1(C)CCc2c(C)c(O)cc(C)c2O1)CO [2f] | 57.8 ± 13.6 % of control | 78.9 ± 14.8 % of control | 90 ± 30 | 380 ± 90 | IC50 (5-LO [2]; [6]): < 100 nM
13 | Cc1cc(O)cc2c1OC(C)(CCC(=O)O)CC2 (centres unmarked) [6d, 2,8-dimethyl-2-(2′-carboxyethyl)-6-hydroxychroman] | n.i. | n.i. | – | – | –
14 | Cc1c(C)c2c(c(C)c1O)CCC(C)(CCCC(C)C(=O)O)O2 (stereo not drawn) [5a, 3,4-dihydro-6-hydroxy-α,2,5,7,8-pentamethyl-2H-1-benzopyran-2-pentanoic acid] | 56.7 ± 3.0 % of control | n.i. | – | – | IC50 (5-LO [2]; [6]): 750 nM
15 | CC(C)=CCC/C(C)=C/CC/C(C)=C/CC[C@]1(C)CCc2c(C)c(O)cc(C)c2O1 [1f] | 65.4 ± 6.1 % of control | n.i. | 190 ± 30 | 95000 ± 5000 | –
16 | Cc1c(O)cc2c(c1C)OC(C)(CCC(=O)O)CC2 (centres unmarked) [6c, 2,7,8-trimethyl-2-(2′-carboxyethyl)-6-hydroxychroman] | 89.9 ± 4.2 % of control | n.i. | – | – | –
17 | C/C(=C\CC/C(C)=C/CC[C@]1(C)CCc2cc(O)c(C)c(C)c2O1)CCC=C(CO)CO [compound 9] | – | – | – | – | IC50 (5-LO [2]): 110 nM
18 | Cc1cc(O)cc2c1O[C@](C)(CCC[C@H](C)CCC[C@H](C)CCCC(C)C(=O)O)CC2 (some centres unmarked) [4d] | 74.5 ± 5.9 % of control | 121.6 ± 10.9 % of control | – | – | Cell viability/peripheral blood mononuclear cells, residual viability [1, 4]: n.i.
